Columns and labels:
EphB4 = biological target: T1, EphB4 (Homo sapiens, UniProt P54760); test: EphB4 kinase inhibition assay; format: biochemical
T1 sequence (P54760 16-987): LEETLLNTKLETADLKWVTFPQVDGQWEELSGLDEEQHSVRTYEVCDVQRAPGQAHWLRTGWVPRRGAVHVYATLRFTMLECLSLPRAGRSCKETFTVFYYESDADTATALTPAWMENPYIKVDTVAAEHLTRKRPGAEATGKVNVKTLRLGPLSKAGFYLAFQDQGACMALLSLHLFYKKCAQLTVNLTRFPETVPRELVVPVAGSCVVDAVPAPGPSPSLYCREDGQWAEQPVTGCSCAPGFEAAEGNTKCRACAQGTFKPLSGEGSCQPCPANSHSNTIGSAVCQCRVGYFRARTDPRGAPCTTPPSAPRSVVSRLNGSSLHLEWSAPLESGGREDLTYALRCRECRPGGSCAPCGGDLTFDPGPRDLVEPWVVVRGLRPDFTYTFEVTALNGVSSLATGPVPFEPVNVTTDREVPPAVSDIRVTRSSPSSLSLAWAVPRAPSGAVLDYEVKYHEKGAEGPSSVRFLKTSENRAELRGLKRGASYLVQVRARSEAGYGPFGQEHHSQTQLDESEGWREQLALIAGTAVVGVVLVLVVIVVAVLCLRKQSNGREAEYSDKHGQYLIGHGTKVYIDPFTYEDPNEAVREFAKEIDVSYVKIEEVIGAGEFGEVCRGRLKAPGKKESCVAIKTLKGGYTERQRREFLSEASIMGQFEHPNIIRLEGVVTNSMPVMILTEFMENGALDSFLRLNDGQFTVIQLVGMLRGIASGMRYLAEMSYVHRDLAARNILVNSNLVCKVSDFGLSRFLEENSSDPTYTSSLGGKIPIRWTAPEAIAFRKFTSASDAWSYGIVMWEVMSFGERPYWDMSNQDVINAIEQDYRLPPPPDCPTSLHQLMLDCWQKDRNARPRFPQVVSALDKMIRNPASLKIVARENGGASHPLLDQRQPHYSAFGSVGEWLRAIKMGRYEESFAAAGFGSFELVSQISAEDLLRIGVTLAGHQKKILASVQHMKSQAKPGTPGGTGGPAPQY
Method in brief: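 ATP near each kinase's KM; 10-point dose-response fitted to a four-parameter equation for IC50. Formats: γ33P-ATP transfer to plate-coated substrate (1.5-2.5 h, ambient, scintillation), luciferase-coupled ATP-consumption read-out (2-4 h, 25-45% ATP consumed), or AlphaScreen with biotinylated poly(Glu,Tyr) 4:1 (1 h).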

EGFR = EGFR (Homo sapiens, UniProt P00533); test: EGFR kinase inhibition assay; format: biochemical
c-Kit = c-Kit (Homo sapiens, UniProt P10721); test: c-Kit biochemical assay (AlphaScreen)
Method in brief: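 Kinase, compound, ATP and biotinylated poly(Glu,Tyr) 4:1 reacted 1 hr at ambient temperature; quenched with EDTA buffer (pH 7.4) containing streptavidin donor and anti-phosphotyrosine PY100 acceptor beads, incubated 16 hr, then AlphaScreen signal read to give IC50.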

flt-3 = biological target: T2, flt-3 (Homo sapiens, UniProt P36888); test: flt-3 Luciferase-Coupled Chemiluminescent Kinase assay (LCCA); format: biochemical
T2 construct: baculovirus expressed human Flt-3 kinase domain R571-S993
T2 sequence (P36888 571-993): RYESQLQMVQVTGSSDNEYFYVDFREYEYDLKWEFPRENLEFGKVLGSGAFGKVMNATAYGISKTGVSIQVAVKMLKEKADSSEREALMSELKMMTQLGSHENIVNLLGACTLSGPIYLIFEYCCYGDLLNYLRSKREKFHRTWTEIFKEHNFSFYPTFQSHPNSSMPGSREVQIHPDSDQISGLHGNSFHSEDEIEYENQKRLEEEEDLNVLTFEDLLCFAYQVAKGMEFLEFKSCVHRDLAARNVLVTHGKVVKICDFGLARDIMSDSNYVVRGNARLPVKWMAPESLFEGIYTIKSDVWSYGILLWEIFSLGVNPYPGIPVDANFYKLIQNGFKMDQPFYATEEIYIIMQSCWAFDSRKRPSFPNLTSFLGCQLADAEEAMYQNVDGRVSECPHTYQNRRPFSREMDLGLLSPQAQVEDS
Method in brief: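 Baculovirus-expressed human Flt-3 kinase domain (R571-S993, 5 nM) was reacted with 5 μM ATP and 3 μM poly-EY in Tris pH 7.5 buffer with MgCl2/MnCl2 for 3 h at ambient temperature. Remaining ATP was read by luciferase-luciferin chemiluminescence, with ATP consumption standardized to 25-45%, for IC50.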

Chain of c-Kit (P10721 26-976): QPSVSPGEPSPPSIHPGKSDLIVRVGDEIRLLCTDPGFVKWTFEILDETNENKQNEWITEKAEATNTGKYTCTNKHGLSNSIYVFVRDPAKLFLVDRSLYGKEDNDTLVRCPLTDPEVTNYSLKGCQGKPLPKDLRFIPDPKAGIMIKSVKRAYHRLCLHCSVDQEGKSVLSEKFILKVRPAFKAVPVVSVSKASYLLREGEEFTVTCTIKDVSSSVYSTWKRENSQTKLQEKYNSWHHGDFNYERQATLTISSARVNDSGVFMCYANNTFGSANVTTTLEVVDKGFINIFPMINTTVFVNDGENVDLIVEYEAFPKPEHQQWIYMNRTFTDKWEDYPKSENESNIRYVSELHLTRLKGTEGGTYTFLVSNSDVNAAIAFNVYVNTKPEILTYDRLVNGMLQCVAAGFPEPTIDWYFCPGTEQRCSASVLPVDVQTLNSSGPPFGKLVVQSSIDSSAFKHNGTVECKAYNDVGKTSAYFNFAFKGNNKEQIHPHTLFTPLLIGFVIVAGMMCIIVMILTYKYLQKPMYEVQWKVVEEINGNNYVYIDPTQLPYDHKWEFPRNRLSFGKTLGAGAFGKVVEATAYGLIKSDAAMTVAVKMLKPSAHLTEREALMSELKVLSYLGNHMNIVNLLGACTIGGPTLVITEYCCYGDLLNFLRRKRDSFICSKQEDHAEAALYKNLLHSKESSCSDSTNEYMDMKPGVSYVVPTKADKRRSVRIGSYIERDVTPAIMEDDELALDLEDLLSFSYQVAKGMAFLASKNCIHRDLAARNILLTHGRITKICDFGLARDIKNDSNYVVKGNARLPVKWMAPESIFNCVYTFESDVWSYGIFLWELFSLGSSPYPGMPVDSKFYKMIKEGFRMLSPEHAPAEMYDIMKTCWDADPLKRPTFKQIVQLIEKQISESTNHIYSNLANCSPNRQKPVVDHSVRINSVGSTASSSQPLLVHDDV
Chain of EGFR (P00533 25-1210, species assumed): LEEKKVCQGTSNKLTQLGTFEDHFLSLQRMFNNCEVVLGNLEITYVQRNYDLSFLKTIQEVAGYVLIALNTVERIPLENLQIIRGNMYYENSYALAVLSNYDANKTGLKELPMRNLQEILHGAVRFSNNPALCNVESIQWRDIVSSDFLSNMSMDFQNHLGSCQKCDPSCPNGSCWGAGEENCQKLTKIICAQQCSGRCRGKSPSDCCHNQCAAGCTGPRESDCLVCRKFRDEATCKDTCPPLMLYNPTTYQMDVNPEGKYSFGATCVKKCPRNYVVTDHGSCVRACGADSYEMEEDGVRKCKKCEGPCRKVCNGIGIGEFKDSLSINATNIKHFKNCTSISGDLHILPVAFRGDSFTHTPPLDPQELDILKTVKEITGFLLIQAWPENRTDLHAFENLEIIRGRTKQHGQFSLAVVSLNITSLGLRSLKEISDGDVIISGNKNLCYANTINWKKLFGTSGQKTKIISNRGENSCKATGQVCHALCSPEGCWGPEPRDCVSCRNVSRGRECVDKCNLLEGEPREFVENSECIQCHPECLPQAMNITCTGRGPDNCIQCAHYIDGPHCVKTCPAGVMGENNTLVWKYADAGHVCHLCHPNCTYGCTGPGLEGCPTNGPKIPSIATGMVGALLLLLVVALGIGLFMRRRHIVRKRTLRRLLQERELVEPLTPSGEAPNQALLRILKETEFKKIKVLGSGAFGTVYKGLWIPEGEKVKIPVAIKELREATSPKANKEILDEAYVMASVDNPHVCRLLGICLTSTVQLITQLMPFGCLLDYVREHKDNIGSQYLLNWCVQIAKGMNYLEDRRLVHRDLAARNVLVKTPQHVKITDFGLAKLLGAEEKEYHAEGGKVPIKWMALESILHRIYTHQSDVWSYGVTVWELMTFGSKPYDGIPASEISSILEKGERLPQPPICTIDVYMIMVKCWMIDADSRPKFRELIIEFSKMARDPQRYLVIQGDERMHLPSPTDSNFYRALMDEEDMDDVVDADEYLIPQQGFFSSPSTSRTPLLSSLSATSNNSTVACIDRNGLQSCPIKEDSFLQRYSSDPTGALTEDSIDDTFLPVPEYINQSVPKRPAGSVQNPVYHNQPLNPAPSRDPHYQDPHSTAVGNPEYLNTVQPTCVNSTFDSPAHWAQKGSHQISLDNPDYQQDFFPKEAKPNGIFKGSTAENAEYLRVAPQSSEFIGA

Row | Structure (SMILES) | IC50 (EphB4) | IC50 (EGFR) | IC50 (c-Kit) | IC50 (flt-3)
1 | Oc1ccc(/C=C/c2cc(-c3cc4ccccc4o3)n[nH]2)cc1 [Entry 45, 4-{(E)-2-[3-(1-benzofuran-2-yl)-1H-pyrazol-5-yl]ethenyl}phenol] | > 5000 nM | > 5000 nM | 50 to 500 nM | 50 to 500 nM
2 | CN1CCN(c2ccc(-c3cc(-c4ccc(NC(=O)C(=O)NCCc5ccccc5)cc4)[nH]n3)cc2)CC1 [Entry 46, N-(4-{3-[4-(4-methylpiperazin-1-yl)phenyl]-1H-pyrazol-5-yl}phenyl)-N′-(2-phenylethyl)ethanediamide] | 500 to 5000 nM | > 5000 nM | 50 to 500 nM | > 5000 nM
3 | Oc1ccc(/C=C/c2cc(-c3cc4ccccc4s3)n[nH]2)cc1 [Entry 49, 4-{(E)-2-[3-(1-benzothien-2-yl)-1H-pyrazol-5-yl]ethenyl}phenol] | > 5000 nM | > 5000 nM | 50 to 500 nM | 50 to 500 nM
4 | O=C(Nc1ccc(-c2cc(-c3ccccc3)n[nH]2)cc1)Nc1ccc(Cl)c(C(F)(F)F)c1 [Entry 50, N-[4-chloro-3-(trifluoromethyl)phenyl]-N′-[4-(3-phenyl-1H-pyrazol-5-yl)phenyl]urea] | > 5000 nM | > 5000 nM | 50 to 500 nM | 50 to 500 nM
5 | CN1CCN(c2ccc(-c3cc(/C=C/c4ccc(O)cc4)[nH]n3)cc2)CC1 [Entry 51, 4-((E)-2-{3-[4-(4-methylpiperazin-1-yl)phenyl]-1H-pyrazol-5-yl}ethenyl)phenol] | > 5000 nM | > 5000 nM | 50 to 500 nM | < 50 nM
6 | Cc1ccc(F)cc1NC(=O)Nc1ccc(-c2cc(-c3ccc(N4CCN(C)CC4)cc3)[nH]n2)cc1 [Entry 53, N-(5-fluoro-2-methylphenyl)-N′-(4-{5-[4-(4-methylpiperazin-1-yl)phenyl]-1H-pyrazol-3-yl}phenyl)urea] | > 5000 nM | > 5000 nM | 50 to 500 nM | 50 to 500 nM
7 | Oc1ccc(/C=C/c2cc(-c3ccccc3)n[nH]2)cc1 [Entry 54, 4-[(E)-2-(3-phenyl-1H-pyrazol-5-yl)ethenyl]phenol] | > 5000 nM | > 5000 nM | 50 to 500 nM | < 50 nM
8 | Oc1ccc(/C=C/c2cc(-c3ccc4ccccc4c3)[nH]n2)cc1 [Entry 56, 4-[(E)-2-(5-naphthalen-2-yl-1H-pyrazol-3-yl)ethenyl]phenol] | > 5000 nM | > 5000 nM | 50 to 500 nM | 50 to 500 nM
9 | CN1CCN(c2cccc(-c3cc(/C=C/c4ccc(O)cc4)[nH]n3)c2)CC1 [Entry 58, 4-((E)-2-{3-[3-(4-methylpiperazin-1-yl)phenyl]-1H-pyrazol-5-yl}ethenyl)phenol] | > 5000 nM | > 5000 nM | 50 to 500 nM | 50 to 500 nM
10 | Oc1ccc(/C=C/c2cc(-c3ccc(Cl)cc3)n[nH]2)cc1 [Entry 61, 4-{(E)-2-[3-(4-chlorophenyl)-1H-pyrazol-5-yl]ethenyl}phenol] | > 5000 nM | > 5000 nM | 500 to 5000 nM | 50 to 500 nM
11 | O=C(Nc1ccccc1)Nc1ccc(-c2cc(-c3ccccc3)n[nH]2)cc1 [Entry 76, N-phenyl-N′-[4-(3-phenyl-1H-pyrazol-5-yl)phenyl]urea] | > 5000 nM | > 5000 nM | 500 to 5000 nM | 500 to 5000 nM

The next lines start with the values.

Row | IC50 (EphB4) | IC50 (EGFR) | IC50 (c-Kit) | IC50 (flt-3) | Structure (SMILES)
12 | > 5000 nM | > 5000 nM | 50 to 500 nM | < 50 nM | COc1cc(/C=C/c2cc(/C=C/c3ccc(F)cc3)n[nH]2)ccc1O [Entry 44, 4-((E)-2-{3-[(E)-2-(4-fluorophenyl)ethenyl]-1H-pyrazol-5-yl}ethenyl)-2-(methyloxy)phenol]
13 | 500 to 5000 nM | > 5000 nM | 50 to 500 nM | < 50 nM | Oc1ccc(/C=C/c2cc(-c3nc4ccccc4[nH]3)n[nH]2)cc1 [Entry 47, 4-{(E)-2-[3-(1H-benzimidazol-2-yl)-1H-pyrazol-5-yl]ethenyl}phenol]
14 | > 5000 nM | > 5000 nM | 50 to 500 nM | < 50 nM | COc1cc(/C=C/c2cc(/C=C/c3ccc(Cl)cc3)n[nH]2)ccc1O [Entry 48, 4-((E)-2-{3-[(E)-2-(4-chlorophenyl)ethenyl]-1H-pyrazol-5-yl}ethenyl)-2-(methyloxy)phenol]
15 | > 5000 nM | > 5000 nM | 50 to 500 nM | 50 to 500 nM | COc1cc(/C=C/c2cc(-c3ccccc3)[nH]n2)ccc1O [Entry 55, 2-(methyloxy)-4-[(E)-2-(5-phenyl-1H-pyrazol-3-yl)ethenyl]phenol]
16 | > 5000 nM | > 5000 nM | 50 to 500 nM | 50 to 500 nM | Oc1ccc(/C=C/c2cc(-c3ccccc3F)[nH]n2)cc1 [Entry 57, 4-{(E)-2-[5-(2-fluorophenyl)-1H-pyrazol-3-yl]ethenyl}phenol]
17 | > 5000 nM | > 5000 nM | 50 to 500 nM | < 50 nM | COc1cc(/C=C/c2cc(/C=C/c3ccc(F)cc3F)n[nH]2)ccc1O [Entry 59, 4-((E)-2-{3-[(E)-2-(2,4-difluorophenyl)ethenyl]-1H-pyrazol-5-yl}ethenyl)-2-(methyloxy)phenol]
18 | > 5000 nM | > 5000 nM | 50 to 500 nM | < 50 nM | Oc1ccc(/C=C/c2cc(-c3ccc(F)cc3)[nH]n2)cc1 [Entry 60, 4-{(E)-2-[5-(4-fluorophenyl)-1H-pyrazol-3-yl]ethenyl}phenol]
